One assay concerns the target T1, Squalene synthase (Rattus norvegicus, UniProt Q02769).
T1 construct: from tissue; host or cells: rat liver microsomes
T1 sequence (Q02769 1-416): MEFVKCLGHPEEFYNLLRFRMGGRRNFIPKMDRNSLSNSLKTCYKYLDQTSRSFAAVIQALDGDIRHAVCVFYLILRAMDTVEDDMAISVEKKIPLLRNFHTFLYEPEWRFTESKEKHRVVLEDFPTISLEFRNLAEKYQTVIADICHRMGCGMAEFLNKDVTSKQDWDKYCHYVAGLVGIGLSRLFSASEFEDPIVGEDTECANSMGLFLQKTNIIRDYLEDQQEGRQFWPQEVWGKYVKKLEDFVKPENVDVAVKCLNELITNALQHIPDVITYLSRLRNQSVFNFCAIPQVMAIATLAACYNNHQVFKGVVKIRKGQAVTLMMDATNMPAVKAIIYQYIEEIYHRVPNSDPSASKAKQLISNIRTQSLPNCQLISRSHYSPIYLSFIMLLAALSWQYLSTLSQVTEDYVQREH
As to the kind of experiment: Inhibition of Squalene synthase (formation of squalene from tritiated farnesyl pyrophosphate, rat liver microsomal protein). In kind it is biochemical. As to conditions: substrate 1-[3H]-farnesyl pyrophosphate 20µM, 37°C, 15 minutes, read-out: IC50 (concentration which results in a 50% inhibition of squalene production). On the procedure:
In this test, the ability of a compound to prevent the formation of squalene from a radioactive substrate (tritiated farnesyl pyrophosphate) is assessed.
The test compound is incubated at a concentration of 25 micromolar in 200µl of a buffered solution containing potassium phosphate (50mM), MgCl2 (4.95mM), KF (9.9mM), NADPH (0.9mM) and rat liver microsomal protein (20µg). Rat liver microsomes are prepared by the method described in published European Patent Application No. 324,421 and stored in liquid nitrogen prior to assay. Assay vials are kept at 37°C throughout the incubation.
The reaction is started with the addition of the substrate (1-[^3H]-farnesyl pyrophosphate), final concentration 20µM, and stopped after 15 minutes reaction time with the addition of 50µl of 4% KOH. The reaction products are separated from unreacted substrate after application to a C-18 octadecyl lccBond column (Analytichem Int product No. 617101). An aqueous fraction is eluted with 250µl of 0.1M KOH. Squalene is then eluted with 1.0 ml 10% ethylacetate in hexane and radioactivity determined. The difference in radioactivity in the presence and absence of the test compound is used to determine the level of inhibition. […]
(Liver microsomes are a subcellular fraction often used to study metabolism.)

Assay [1] has as its system de novo hepatic cholesterol synthesis. As to the kind of experiment: Acute rat cholesterol synthesis assay (de novo hepatic cholesterol synthesis from 14C-acetate). In kind it is in vivo. As to conditions: female rats, [2-14C]-acetate ip 1 hour after compound, plasma sampled after a further hour, route not stated. On the procedure:
This is an acute in vivo test in the rat to measure de novo hepatic cholesterol synthesis from exogenously administered ^14C-acetate.
Female rats (35 - 55 g) are housed in reverse lighting conditions (red light from 0200h - 1400h) for a period of about 2 weeks prior to test. Animals are allowed free access to chow and drinking water throughout this period. At test, animals should weigh 125 - 150 g.
Test compounds may be administered by oral gavage, dissolved or suspended in 0.5% polysorbate, or by ip or iv dosing. Control animals receive vehicle alone. After 1 hour the rats are injected ip with 25µCi [2-^14C]-acetate (NEN DUPONT. specific activity, 45-60mCi/mmol NEC-085H, or AMERSHAM specific activity, 50-60mCi/mmol CFA 14) in a volume of 0.25 ml saline (100µCi/ml). After a further hour a blood sample was obtained from the abdominal vena cava under terminal halothane anaesthesia.
1ml of plasma is lyophilised and then saponified in 2ml ethanolic KOH (1 part 33% KOH, 9 parts ethanol) at 75°C for 2 hours. After addition of an equal quantity of water, non-saponifiable lipids are extracted with […] 5ml volumes of hexane. The hexane extracts are evaporated to dryness and the residues dissolved in ethanol to determine cholesterol specific radioactivity. ED50 values can be determined in the standard way.

Two molecules from patent EP0596057B1, “QUINUCLIDINE DERIVATIVES AS SQUALENE SYNTHASE INHIBITORS” (priority 1992, dated 1993) can be followed below.

With `OC1(c2ccc(COc3ccccc3)cc2)CN2CCC1CC2` (centres unmarked) [Example 2, 3-(4-phenoxymethylphenyl)-quinuclidin-3-ol], the IC50 on Squalene synthase amounted to 30 nM.
On to `OC1(c2ccc(C#Cc3ccccc3)cc2)CN2CCC1CC2` (centres unmarked) [Example 4, 3-(4-phenylethyn-2-ylphenyl)quinuclidin-3-ol], for which the ED50 (usually the dose that gives a 50% effect, or the effect in half of the subjects) in assay [1] is 29 mg/kg.
